This is an account of results in patent publication US10183006B2, “Methods of therapeutic monitoring of nitrogen scavenging drugs” (Horizon Therapeutics, LLC, priority 2011, dated 2019).

Data set [1] can be described thus: Short term switch over comparison of NaPBA and HPN-100 in controlling ammonia, 24-hr serial sampling, pediatric UCD patients. In kind it is in vivo, human. To be noted: end of treatment with HPN-100; 11 pediatric UCD patients ages 6-17. An excerpt:
(§1) The relationship between reducing ammonia burden by maintaining fasting ammonia at or close to half ULN and neuropsychological outcomes in pediatric UCD patients was explored in clinical trials. […] These patients underwent 24-hr serial sample collection in a confined setting where the last sample at 24 hr was considered fasting and under supervision of the study personnel. At the end of treatment with HPN-100 the average fasting ammonia at 24-hr time point was 15.5 μmol/L or less than half ULN, indicating good clinical control. These 11 patients along with another 15 pediatric patients were enrolled in two long term studies and received HPN-100 for 12 months, during which monthly fasting ammonia were collected. At the time of enrollment and at the end of the study, all patients underwent assessment for neuropsychological outcomes including the following: BRIEF (Behavior Rating Inventory of Executive Function) to assess day-to-day executive functioning, CBCL (Child Behavior Checklist) to evaluate internalizing (e.g., mood/anxiety) and externalizing behaviors, and WASI (Wechsler Abbreviated Scale of Intelligence) to estimate of intellectual ability.

Data set [2] in a line: Two long term studies, HPN-100 for 12 months in pediatric UCD patients: monthly fasting ammonia and hyperammonemia episodes. In kind it is in vivo, human.
Description: as §1, with “ability. […]” for “ability.”

Data set [3] is described as follows: Neuropsychological outcomes (BRIEF, CBCL, WASI) after 12 months HPN-100 in pediatric UCD patients. Type of data set: in vivo, human.
Description: as §1
In pediatric patients, WASI and CBCL scores were stable in comparison to baseline. The majority of the BRIEF subscales at baseline were at or close to 65, consistent with borderline and/or clinically significant dysfunction. Among 22 pediatric subjects who completed the neuropsychological testing at 12 months, all BRIEF domains were improved (lower T scores) with means (SD) at end of study compared to baseline for Behavioral Regulation Index 53.7 (9.79) vs. 60.4 (14.03) (p<0.05); Metacognition Index 57.5 (9.84) vs. 67.5 (13.72) (p<0.001), and Global Executive Scale 56.5 (9.71) vs. 66.2 (14.02) (p<0.001).

The nature of data set [4]: Relationship between PAA levels and neurological AEs in UCD patients (switchover and 12-month protocols). Type of data set: in vivo, human. To be noted: short term switchover.
Data set [5] in a line: Population PK model (NONMEM) and Monte Carlo dosing simulations in UCD patients. Details: species or system human. The protocol: Diagnostic plots and statistical comparisons were used to select among candidate models, and covariates were assessed by graphical analyses and covariate modeling.
Data set [6] is described as follows: HPN-100 in subjects with hepatic impairment with cirrhosis and healthy adults (Study UP 1204-002): urinary excretion. In kind it is in vivo, human. To be noted: for PAGN Proportion excreted post-24 hours (%), of total PAGN eliminated over 48 hours: after dosing on day 1. The protocol: (§2) To determine its pharmacokinetic (PK) and pharmacodynamic (PD) profile in patients with liver disease, clinical testing was conducted in which HPN-100 was administered orally as a single dose (100 mg/kg/day on day 1), and twice daily for 7 consecutive days (200 mg/kg/day on days 8 through 14, in two doses of 100 mg/kg per dose), to subjects with hepatic impairment with cirrhosis (Child-Pugh scores of A, B, or C) and to a gender and age-matched control group of healthy adults with normal hepatic function. On day 15, subjects received a single dose of HPN-100 (100 mg/kg). PK blood samples were taken pre-dose, at 15 and 30 minutes post-dose, and at 1, 1.5, 2, 3, 4, 6, 8, 12, and 24 hours post-dose on days 1, 8, and 15, and at 48 hours after dosing on days 1 and 15. On days 9-14, blood samples were taken pre-morning dose and at 2 hours post-morning dose. Urine was collected 0-4, 4-8, 8-12, and 12-24 hours post-dose on days 1, 8, and 15, and at 24-48 hours post-dose on days 1 and 15.

Data set [7] in a line: Illustrative UCD patient cases (Patients A, B, C): blood ammonia under nitrogen scavenging drug.
Description: In certain embodiments of the methods disclosed herein, blood samples used for measuring fasting blood ammonia levels and/or ULN blood ammonias are venous blood samples. In certain embodiments, a blood sample is a plasma blood sample. Any methods known in the art may be used to obtain a plasma blood sample. For example, blood from a subject may be drawn into a tube containing heparin or ethylenediaminetetraacetic acid (EDTA). In certain embodiments, the sample can be placed on ice and centrifuged to obtain plasma within 15 minutes of collection, stored at 2-8° C. […] In other embodiments, the blood plasma sample is snap frozen, stored at ≤−18° C. […] In certain embodiments, blood samples are taken in a laboratory or hospital setting. In certain embodiments, a single fasting blood sample is used to measure fasting blood ammonia level. However, in other embodiments, multiple fasting blood samples may be obtained. In certain embodiments, a subject's blood ammonia level may be monitored throughout the day. Further, in certain embodiments, the methods disclosed herein comprise an additional step of obtaining one or more blood samples from a subject prior to or after measuring fasting blood ammonia level.
Measurement of ammonia levels in a fasting blood sample is carried out using techniques known in the art. For example, ammonia levels may be measured using a colorimetric reaction or an enzymatic reaction. In certain embodiments, a colorimetric reaction may involve the use of bromophenol blue as an ammonia indicator. In these embodiments, ammonia may react with bromophenol blue to yield a blue dye. In certain embodiments, an enzymatic reaction may involve glutamate dehydrogenase catalyzing the reductive amination of 2-oxoglutarate with NH^4+ and NADPH to form glutamate and NADP^+. The formation of NADP^+ formed is directly proportional to the amount of ammonia present in the blood sample. Therefore, the concentration of ammonia is measured based on a decrease in absorbance.
Initial dosage is determined based on body surface area or as otherwise instructed according to HPN-100 drug labeling.
The nature of data set [8]: HPN-100 in subjects with hepatic impairment with cirrhosis and healthy adults: plasma metabolites. Type of data set: in vivo, human. To be noted: all plasma samples, all subject groups. The protocol: as §2
Where [9] appears, read: after dosing on day 1 (0-48 hours), Child-Pugh A.
Setting [10] is: after dosing on day 1 (0-48 hours), Child-Pugh B.
Where [11] appears, read: after dosing on day 1 (0-48 hours), Child-Pugh C.
The mark [12] stands for this setting: after dosing on day 1 (0-48 hours), Healthy Volunteers.
Where [13] appears, read: Patient A, 3 mL dose with each meal.

For `O=C(CCCc1ccccc1)OCC(COC(=O)CCCc1ccccc1)OC(=O)CCCc1ccccc1` [HPN-100, glyceryl tri-[4-phenylbutyrate]], the “average fasting ammonia at 24-hr time point” value in data set [1] is 15.5 µmol/L. Also, in data set [2] (during 12 month treatment, pediatric UCD patients, 9 in the 12 months before enrollment), the “episodes of acute hyperammonemia” value is 5. Also, in data set [2] (during the 12 month study, 233 μmol/L before enrollment), the “peak ammonia, mean” value is 166 µmol/L. Moreover, the “BRIEF Behavioral Regulation Index, T score mean (SD) at end of study” value in data set [3] (22 pediatric subjects, baseline 60.4 (14.03), p<0.05) was 53.7 (9.79). Also, the “BRIEF Global Executive Scale, T score mean (SD) at end of study” value in data set [3] (22 pediatric subjects, baseline 66.2 (14.02), p<0.001) is 56.5 (9.71). Also, the “BRIEF Metacognition Index, T score mean (SD) at end of study” value in data set [3] (22 pediatric subjects, baseline 67.5 (13.72), p<0.001) is 57.5 (9.84). Moreover, in data set [3] (pediatric patients), the “WASI and CBCL scores in comparison to baseline” value was “stable”. In addition, the “relationship between neurological AEs and PAA levels” value in data set [4] was “No statistically significant relationship”. Also, the entries for the “fractional presystemic metabolism of PBA” value in data set [5] (adults) and in data set [5] (pediatric patients) were 43% and 14%, respectively. For the same compound, the “slower PBA absorption when delivered as GPB vs. NaPBA” value in data set [5] (final popPK model) is roughly 60%. The “urinary PAGN Amount Excreted” value amounted to 15553 µmol in data set [6] (after dosing on day 1 (0-24 hours), Child-Pugh A (n = 8)); 16847 µmol in data set [6] (after dosing on day 1 (0-24 hours), Child-Pugh B (n = 8)); 19291 µmol in data set [6] (after dosing on day 1 (0-24 hours), Child-Pugh C (n = 8)); 14903 µmol in data set [6] (after dosing on day 1 (0-24 hours), Healthy Volunteers (n = 8)); 18386 µmol in data set [6] (setting [9]); 19902 µmol in data set [6] (setting [10]). Also, the “urinary PAGN Amount Excreted” value in data set [6] (setting [11]) amounted to 20854 µmol; in data set [6] (setting [12]), 17869 µmol; in data set [6] (after dosing on day 8 (0-12 hours), after first 100 mg/kg morning dose, Child-Pugh A), 16068 µmol; in data set [6] (after dosing on day 8 (0-12 hours), after first 100 mg/kg morning dose, Child-Pugh B), 13179 µmol; in data set [6] (after dosing on day 8 (0-12 hours), after first 100 mg/kg morning dose, Child-Pugh C) it was 15428 µmol; in data set [6] (after dosing on day 8 (0-12 hours), after first 100 mg/kg morning dose, Healthy Volunteers) it was 10195 µmol. The “urinary PAGN Amount Excreted” value was found to be 31431 µmol in data set [6] (after dosing on day 15 (0-48 hours), Child-Pugh A); 25152 µmol in data set [6] (after dosing on day 15 (0-48 hours), Child-Pugh B); 30752 µmol in data set [6] (after dosing on day 15 (0-48 hours), Child-Pugh C); 28716 µmol in data set [6] (after dosing on day 15 (0-48 hours), Healthy Volunteers). The “PAGN Mole % of dose excreted” value was found to be 47.1 Mole % in data set [6] (setting [9]); 44.9 Mole % in data set [6] (setting [10]); 48.5 Mole % in data set [6] (setting [11]); 42.2 Mole % in data set [6] (setting [12]); 40.6 Mole % in data set [6] (after dosing on day 8 (0-12 hours), Child-Pugh A); 29.9 Mole % in data set [6] (after dosing on day 8 (0-12 hours), Child-Pugh B). Besides, the “PAGN Mole % of dose excreted” value in data set [6] (after dosing on day 8 (0-12 hours), Child-Pugh C) is 44.6 Mole %; in data set [6] (after dosing on day 8 (0-12 hours), Healthy Volunteers), 24.5 Mole %; in data set [6] (after dosing on day 15 (0-48 hours), % of the single morning dose of day 15, Child-Pugh A), 79.6 Mole %; in data set [6] (after dosing on day 15 (0-48 hours), % of the single morning dose of day 15, Child-Pugh B), 58.2 Mole %; in data set [6] (after dosing on day 15 (0-48 hours), % of the single morning dose of day 15, Child-Pugh C), 85.0 Mole %; in data set [6] (after dosing on day 15 (0-48 hours), % of the single morning dose of day 15, Healthy Volunteers), 68.6 Mole %. For the same compound, the “PAGN Proportion excreted post-24 hours (%), of total PAGN eliminated over 48 hours” value in data set [6] (Child-Pugh A) came out at 15.5%; in data set [6] (Child-Pugh B), 14.5%; in data set [6] (Child-Pugh C), 8.8%; in data set [6] (Healthy Volunteers), 16.9%. In data set [6] (after single dose administration, cirrhosis and healthy volunteers), the “average conversion of HPN-100 to PAGN” value is reported as 40-50%. The “HPN-100 dose administered excreted as PAGN” value in data set [6] (day 1) is reported as 42-49%; in data set [6] (day 8), 25-45%; in data set [6] (day 15), 58-85%. The “effect of hepatic impairment on ammonia-scavenging ability” value in data set [6] (urinary PAGN excretion, Child-Pugh groups vs healthy volunteers) was “no significant effect”. The “fasting blood ammonia level” value in data set [7] (Patient A, adult UCD, 9 mL/day for at least 7 days, 52 μmol/L before treatment) is 33 µmol/L; in data set [7] (Patient B, 3.5 mL 3 times a day for at least 7 days) it was 17 µmol/L. The compound also yielded an average daily ammonia in data set [7] (setting [13]) of 66 µmol/L. In addition, the “maximum ammonia after dinner” value in data set [7] (setting [13]) is 95 µmol/L. Moreover, the fasting ammonia level in data set [7] (Patient A, 12 mL total or 4 mL TID for at least 7 days) was found to be 15 µmol/L.

`O=C(O)CNC(=O)Cc1ccccc1` [PAG, phenylacetyl glycine]: the “alternative HPN-100 metabolite level in plasma” value in data set [8] is “below the limit of quantification”.

Take `O=C(O)CNC(=O)CCCc1ccccc1` [PBG, phenylbutyryl glycine]: in data set [8], the “alternative HPN-100 metabolite level in plasma” value was “below the limit of quantification”.

Take `NC(=O)CC[C@H](NC(=O)CCCc1ccccc1)C(=O)O` [PBGN, phenylbutyryl glutamine]: the “alternative HPN-100 metabolite level in plasma” value in data set [8] was “below the limit of quantification”.

In the case of `O=C([O-])c1ccccc1.[Na+]` [sodium benzoate, reference compound], the “fasting blood ammonia level” value in data set [7] (Patient C, adult UCD, 15 g/day for at least 7 days, 77 μmol/L before treatment) turned out to be 35 µmol/L. The compound further registered a fasting ammonia level in data set [7] (Patient C, 18 grams per day for at least 7 days) of 15 µmol/L.

Take “sodium phenylbutyrate [NaPBA, reference compound]”: the “relationship between neurological AEs and PAA levels” value in data set [4] is given as “No statistically significant relationship”. Also, the “fractional presystemic metabolism of PBA” value in data set [5] (adults) is reported as 23%; in data set [5] (pediatric patients), 43%. In data set [7] (Patient B, 11-year UCD patient, 24 pills per day, suspected noncompliant), the “fasting blood ammonia level” value was 40 µmol/L.
